# Results from patent publication US12084472B2 (Ardelyx, Inc., priority 2015, dated 2024).
# Target: T1, human TGR5 (Homo sapiens, UniProt Q8TDU6)
# T1 construct: expressed in transfected cells; host or cells: HEK293
# T1 sequence (Q8TDU6 1-330): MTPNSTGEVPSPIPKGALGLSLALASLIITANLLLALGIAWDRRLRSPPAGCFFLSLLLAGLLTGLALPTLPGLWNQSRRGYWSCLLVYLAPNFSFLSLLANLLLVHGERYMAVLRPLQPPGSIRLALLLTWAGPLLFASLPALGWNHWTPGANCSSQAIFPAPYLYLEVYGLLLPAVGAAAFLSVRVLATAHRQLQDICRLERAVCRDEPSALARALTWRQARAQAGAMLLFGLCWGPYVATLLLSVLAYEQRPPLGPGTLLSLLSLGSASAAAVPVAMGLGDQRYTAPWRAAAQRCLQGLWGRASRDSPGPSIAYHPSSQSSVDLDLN
# Assay: Cell-based TGR5 assay (cAMP generation, HTRF)
# Conditions: HEK293 cells stably transfected with human TGR5; cAMP by HTRF; 30 minutes at 37° C.; read-out: pEC50 Human TGR5 (converted)
# Method in brief: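 First, compounds in 3-fold serial dilution were placed in HBSS with 10 mM HEPES pH 7.4 and 0.5 mM IBMX. Next, human TGR5-expressing HEK293 cells were added and incubated 30 min at 37° C. Finally, cAMP was detected by HTRF and pEC50 derived by logistic fitting.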
row,Compound,EC50 [nM]
1,"CN(C[C@H](O)[C@@H](O)[C@H](O)[C@H](O)CO)C(=O)CCCCSc1ccc(Cl)c(CNC2(c3cnccc3-c3ccccc3OC3CC3)CC2)c1 [Compound I-678, 5-({4-chloro-3-[({1-[4-(2-cyclopropoxyphenyl)pyridin-3-yl]cyclopropyl}amino)methyl]phenyl}sulfanyl)-N-methyl-N-[(2S,3R,4R,5R)-2,3,4,5,6-pentahydroxyhexyl]pentanamide]",< 100
2,"CN(C[C@H](O)[C@@H](O)[C@H](O)[C@H](O)CO)C(=O)CC1(CSc2ccc(Cl)c(COC3(c4cnccc4-c4ccccc4OC4CC4)CC3)c2)CC1 [Compound I-679, 2-[1-({[4-chloro-3-({1-[4-(2-cyclopropoxyphenyl)pyridin-3-yl]cyclopropoxy}methyl)phenyl]sulfanyl}methyl)cyclopropyl]-N-methyl-N-[(2S,3R,4R,5R)-2,3,4,5,6-pentahydroxyhexyl]acetamide]",< 100
3,"CN(C[C@H](O)[C@@H](O)[C@H](O)[C@H](O)CO)C(=O)c1ccc(CSc2ccc(Cl)c(CNC3(c4cnccc4-c4ccccc4OC4CC4)CC3)c2)cc1 [Compound I-680, 4-[({4-chloro-3-[({1-[4-(2-cyclopropoxyphenyl)pyridin-3-yl]cyclopropyl}amino)methyl]phenyl}sulfanyl)methyl]-N-methyl-N-[(2S,3R,4R,5R)-2,3,4,5,6-pentahydroxyhexyl]benzamide]",126 to 1000
4,"CN(C[C@H](O)[C@@H](O)[C@H](O)[C@H](O)CO)C(=O)CC1(CSc2ccc(Cl)c(CNC3(c4cnccc4-c4ccccc4OC4CC4)CC3)c2)CC1 [Compound I-681, 2-{1-[({4-chloro-3-[({1-[4-(2-cyclopropoxyphenyl)pyridin-3-yl]cyclopropyl}amino)methyl]phenyl}sulfanyl)methyl]cyclopropyl}-N-methyl-N-[(2S,3R,4R,5R)-2,3,4,5,6-pentahydroxyhexyl]acetamide]",< 100
5,"CN(C[C@H](O)[C@@H](O)[C@H](O)[C@H](O)CO)C(=O)CCCCSc1ccc(Cl)c(COC2(c3cnccc3-c3ccccc3OC3CC3)CC2)c1 [Compound I-682, 5-{[4-chloro-3-({1-[4-(2-cyclopropoxyphenyl)pyridin-3-yl]cyclopropoxy}methyl)phenyl]sulfanyl}-N-methyl-N-[(2S,3R,4R,5R)-2,3,4,5,6-pentahydroxyhexyl]pentanamide]",< 100

# Second part, the compound after the results:
row,EC50 [nM],Compound
1,126 to 1000,"O=C(CCCSc1ccc(Cl)c(COC2(c3cnccc3-c3ccccc3OC3CC3)CC2)c1)N(CCOCCO)C[C@H](O)[C@@H](O)[C@H](O)[C@H](O)CO [Compound I-683, 4-{[4-chloro-3-({1-[4-(2-cyclopropoxyphenyl)pyridin-3-yl]cyclopropoxy}methyl)phenyl]sulfanyl}-N-[2-(2-hydroxyethoxy)ethyl]-N-[(2S,3R,4R,5R)-2,3,4,5,6-pentahydroxyhexyl]butanamide]"
2,126 to 1000,"O=C(CCCSc1ccc(Cl)c(COC2(c3cnccc3-c3ccccc3OC3CC3)CC2)c1)N(CCCCCO)C[C@H](O)[C@@H](O)[C@H](O)[C@H](O)CO [Compound I-684, 4-f{[4-chloro-3-({1-[4-(2-cyclopropoxyphenyl)pyridin-3-yl]cyclopropoxy}methyl)phenyl]sulfanyl}-N-(5-hydroxypentyl)-N-[(2S,3R,4R,5R)-2,3,4,5,6-pentahydroxyhexyl]butanamide]"
3,< 100,"CN(C[C@H](O)[C@@H](O)[C@H](O)[C@H](O)CO)C(=O)c1ccc(CSc2ccc(Cl)c(COC3(c4cnccc4-c4ccccc4OC4CC4)CC3)c2)cc1 [Compound I-685, 4-({[4-chloro-3-({1-[4-(2-cyclopropoxyphenyl)pyridin-3-yl]cyclopropoxy}methyl)phenyl]sulfanyl}methyl)-N-methyl-N-[(2S,3R,4R,5R)-2,3,4,5,6-pentahydroxyhexyl]benzamide]"
